The numbers were not newly measured in paper PMC12080252, “Daphnia magna as an Alternative Model for (Simultaneous) Bioaccumulation and Chronic Toxicity Assessment—Controlled Exposure Study Indicates High Hazard of Heterocyclic PAHs” (Environmental Science & Technology, 2025), which cites them from elsewhere.

For one data set, the system named is fish. The following applies: cited from earlier work.
A further data set has as its system D. magna. The following applies: Table S1; footnote not given; cited from earlier work.
The subject of the next data set is D. magna or D. pulex. The note with it: D. magna or D. pulex; ref SI refs 8, 10; cited from earlier work.

With `c1ccc2c(c1)sc1ccccc12` [dibenzothiophene], the bioaccumulation in fish result in the data set on fish was “high bioaccumulation in fish”. In addition, the “lowest PNEC*” value in the data set with D. magna was 0.24 µg/L.
On to `c1ccc2nc3ccc4ccccc4c3cc2c1` [benz(a)acridine], for which, in the data set with D. magna or D. pulex, the half-life is reported as 1.2 h and the “log k2” value is -0.24 h-1. For the same compound, in the data set with D. magna, the “lowest PNEC*” value was 0.016 µg/L.
Regarding `c1ccc2c(c1)Cc1ccccc1S2` [thioxanthene], in the data set on D. magna, the “lowest PNEC*” value is 0.32 µg/L.
